From patent US11459321B2, “Broad spectrum antiviral compositions and methods” (priority 2017, dated 2022)

test system: human cytomegalovirus (HCMV); assay: microbe, parasite or virus in culture; assay type: cell-based; conditions: Human MRCS cells, 0.01 IU per cell, virus yield at 7 days post infection, mCherry positive cells

Row | Structure (SMILES) | IC50 [µM]
1 | c1cnn(-c2ccc(Cc3cnc(N4CCc5cc(-n6ccnc6)ccc5C4)s3)cc2)c1 [Example 18] | 1.08

same assay, conditions: Human betaherpesvirus 5, 168 h; Human MRCS cells, 0.01 IU per cell, virus yield at 7 days post infection, mCherry positive cells

Row | Structure (SMILES) | IC50 [µM]
2 | CC(C)c1cc(Cc2cnc(N3CCc4ccc(-c5cn(C)nn5)cc4C3)s2)cc(-n2cccn2)c1 [Example 1] | 11.7
3 | Cn1cc(-c2ccc3c(c2)CN(c2ncc(Cc4ccc(-n5cccn5)cc4)s2)CC3)nn1 [Example 2] | 1.17
4 | Cn1cc(-c2ccc3c(c2)CN(c2ncc(Cc4cccc(-n5cccn5)c4)s2)CC3)nn1 [Example 3] | 1.91
5 | c1cc(Cc2cnc(N3CCc4ccc(-c5c[nH]nn5)cc4C3)s2)cc(-n2cccn2)c1 [Example 4] | 0.758
6 | c1cnn(-c2ccc(Cc3cnc(N4CCc5ccc(-c6c[nH]nn6)cc5C4)s3)cc2)c1 [Example 5] | 0.807
7 | Cc1nc(-c2ccc3c(c2)CN(c2ncc(Cc4ccc(-n5cccn5)cc4)s2)CC3)no1 [Example 6] | 3.37
8 | COCCn1nncc1-c1ccc2c(c1)CN(c1ncc(Cc3ccc(-n4cccn4)cc3)s1)CC2 [Example 7] | 1.7
9 | COCCn1nncc1-c1ccc2c(c1)CN(c1ncc(Cc3cccc(-n4cccn4)c3)s1)CC2 [Example 8] | 2.01
10 | c1cnn(-c2ccc(Cc3cnc(N4CCc5ccc(-n6ccnc6)cc5C4)s3)cc2)c1 [Example 9] | 0.479
11 | COCCn1cc(-c2ccc3c(c2)CN(c2ncc(Cc4ccc(-n5cccn5)cc4)s2)CC3)nn1 [Example 11] | 1.7
12 | COCCn1cc(-c2ccc3c(c2)CN(c2ncc(Cc4cccc(-n5cccn5)c4)s2)CC3)nn1 [Example 12] | 5.98
13 | Cc1cn(-c2ccc3c(c2)CN(c2ncc(Cc4ccc(-n5cccn5)cc4)s2)CC3)cn1 [Example 13] | 1.06
14 | Cc1cn(-c2ccc3c(c2)CN(c2ncc(Cc4ccc(-n5cccn5)cc4)s2)CC3)c(C)n1 [Example 14] | 0.453
15 | c1cc(Cc2cnc(N3CCc4ccc(-c5nc[nH]n5)cc4C3)s2)cc(-n2cccn2)c1 [Example 15] | 1.85
16 | c1cnn(-c2ccc(Cc3cnc(N4CCc5ccc(-c6nc[nH]n6)cc5C4)s3)cc2)c1 [Example 16] | 0.2
17 | c1cn(-c2ccc(Cc3cnc(N4CCc5ccc(-n6ccnc6)cc5C4)s3)cc2)cn1 [Example 17] | 0.748
18 | Cc1cn(-c2ccc3c(c2)CN(c2ncc(Cc4cccc(-n5cccn5)c4)s2)CC3)c(C)n1 [Example 19] | 1.3
19 | c1cnn(-c2ccc(Cc3cnc(N4CCc5ccc(-c6ncc[nH]6)cc5C4)s3)cc2)c1 [Example 20] | 5.27
20 | Cc1cn(-c2ccc3c(c2)CN(c2ncc(Cc4cccc(-n5cccn5)c4)s2)CC3)cn1 [Example 21] | 2.62
21 | COc1ccc(Cc2cnc(N3CCc4ccc(-n5cc(C)nc5C)cc4C3)s2)cc1-n1cccn1 [Example 22] | 0.306
22 | Cc1cn(-c2ccc(Cc3cnc(N4CCc5ccc(-n6cc(C)nc6C)cc5C4)s3)cc2)c(C)n1 [Example 23] | 0.707
23 | O=C1OCCN1c1ccc2c(c1)CN(c1ncc(Cc3ccc(-n4cccn4)cc3)s1)CC2 [Example 24] | 0.353
24 | O=C1NCCN1c1ccc2c(c1)CN(c1ncc(Cc3ccc(-n4cccn4)cc3)s1)CC2 [Example 25] | 0.911

Row | Structure (SMILES) | IC50 [µM]
25 | CN1CCN(c2ccc3c(c2)CN(c2ncc(Cc4ccc(-n5cccn5)cc4)s2)CC3)C1=O [Example 26] | 0.637
26 | COc1cc(Cc2cnc(N3CCc4ccc(-n5cc(C)nc5C)cc4C3)s2)ccc1-n1cccn1 [Example 27] | 0.345
27 | O=C1OCCN1c1ccc2c(c1)CN(c1ncc(Cc3cccc(-n4cccn4)c3)s1)CC2 [Example 28] | 1.89
28 | O=C1OCCN1c1ccc2c(c1)CN(c1ncc(Cc3ccc(-c4ncccn4)cc3)s1)CC2 [Example 29] | 0.858
29 | N#Cc1ccc(Cc2cnc(N3CCc4ccc(N5CCOC5=O)cc4C3)s2)cc1 [Example 30] | 4.42
30 | O=C1OCCN1c1ccc2c(c1)CN(c1ncc(Cc3ccc(N4CCOCC4)cc3)s1)CC2 [Example 31] | 0.803
31 | O=C1OCCN1c1ccc(Cc2cnc(N3CCc4ccc(N5CCOC5=O)cc4C3)s2)cc1 [Example 32] | 0.979
32 | O=C1OCCN1c1ccc2c(c1)CN(c1ncc(Cc3cccc(N4CCS(=O)(=O)CC4)c3)s1)CC2 [Example 33] | 0.903
33 | CS(=O)(=O)c1cccc(Cc2cnc(N3CCc4ccc(N5CCOC5=O)cc4C3)s2)c1 [Example 34] | 0.633
34 | O=C1OCCN1c1ccc2c(c1)CN(c1ncc(Cc3cccc(N4CCOCC4)c3)s1)CC2 [Example 35] | 0.891
35 | O=C1OCCN1c1ccc2c(c1)CN(c1ncc(Cc3ccc(N4CCS(=O)(=O)CC4)cc3)s1)CC2 [Example 36] | 0.666
36 | O=C1NCCCN1c1ccc2c(c1)CN(c1ncc(Cc3ccc(-n4cccn4)cc3)s1)CC2 [Example 37] | 9.96
37 | CN1CCCN(c2ccc3c(c2)CN(c2ncc(Cc4ccc(-n5cccn5)cc4)s2)CC3)C1=O [Example 38] | 3.49
38 | N#Cc1cccc(Cc2cnc(N3CCc4ccc(N5CCOC5=O)cc4C3)s2)c1 [Example 39] | 2.75
39 | O=C1OCCN1c1cccc(Cc2cnc(N3CCc4ccc(N5CCOC5=O)cc4C3)s2)c1 [Example 40] | 0.956
40 | O=C1OCCN1c1ccc2c(c1)CN(c1ncc(Cc3ccc(-n4cccn4)nc3)s1)CC2 [Example 41] | 0.553
41 | O=C1COCCN1c1ccc2c(c1)CN(c1ncc(Cc3ccc(-n4cccn4)cc3)s1)CC2 [Example 42] | 2.47
42 | CS(=O)(=O)c1ccc(Cc2cnc(N3CCc4ccc(N5CCOC5=O)cc4C3)s2)cc1 [Example 43] | 0.617
43 | Cc1cn(-c2ccc(Cc3cnc(N4CCc5ccc(N6CCOC6=O)cc5C4)s3)cc2)c(C)n1 [Example 44] | 0.552
44 | COCCN1CCCN(c2ccc3c(c2)CN(c2ncc(Cc4ccc(-n5cccn5)cc4)s2)CC3)C1=O [Example 45] | 1.78
45 | Cc1cn(-c2ccc3c(c2)CN(c2ncc(Cc4ccc(N5CCOCC5)cc4)s2)CC3)c(C)n1 [Example 46] | 0.605
46 | Cc1cnc(C)n1-c1ccc2c(c1)CN(c1ncc(Cc3ccc(N4CCOCC4)cc3)s1)CC2 [Example 47] | 0.796
47 | Cc1cn(-c2ccc3c(c2)CN(c2ncc(Cc4ccc(N5CCS(=O)(=O)CC5)cc4)s2)CC3)c(C)n1 [Example 48] | 0.195

Row | Structure (SMILES) | IC50 [µM]
48 | O=C1CCCN1c1ccc2c(c1)CN(c1ncc(Cc3ccc(-c4ncccn4)cc3)s1)CC2 [Example 49] | 0.516
49 | O=C1CCCN1c1ccc2c(c1)CN(c1ncc(Cc3ccc(N4CCOCC4)cc3)s1)CC2 [Example 50] | 0.613
50 | O=C1CCCN1c1ccc2c(c1)CN(c1ncc(Cc3ccc(N4CCS(=O)(=O)CC4)cc3)s1)CC2 [Example 51] | 0.737
51 | CN1CCN(c2ccc3c(c2)CN(c2ncc(Cc4ccc(-c5ncccn5)cc4)s2)CC3)C1=O [Example 52] | 1.36
52 | O=C1NCCN1c1ccc2c(c1)CN(c1ncc(Cc3ccc(-c4ncccn4)cc3)s1)CC2 [Example 53] | > 4.17
53 | c1cnc(-c2ccc(Cc3cnc(N4CCc5ccc(N6CCOCC6)cc5C4)s3)cc2)nc1 [Example 54] | 1.09
54 | O=C1OCCN1c1ccc2c(c1)CN(c1ncc(Cc3cncc(-n4cccn4)c3)s1)CC2 [Example 55] | 3.83
55 | Cc1cn(-c2ccc3c(c2)CN(c2ncc(Cc4ccc(N5CCOC5=O)cc4)s2)CC3)c(C)n1 [Example 56] | 0.317
56 | CN1CCN(c2ccc3c(c2)CN(c2ncc(Cc4ccc(N5CCOC5=O)cc4)s2)CC3)C1=O [Example 57] | 0.742
57 | O=C1OCCN1c1ccc(Cc2cnc(N3CCc4ccc(N5CCOCC5)cc4C3)s2)cc1 [Example 58] | 1.13
58 | CN1CCCN(c2ccc3c(c2)CN(c2ncc(Cc4ccc(C5CCOCC5)cc4)s2)CC3)C1=O [Example 59] | 0.73
59 | CN1CCCN(c2ccc3c(c2)CN(c2ncc(Cc4ccc(N5CCOCC5)cc4)s2)CC3)C1=O [Example 60] | 9.84
60 | CN1CCCN(c2ccc3c(c2)CN(c2ncc(Cc4ccc(S(C)(=O)=O)cc4)s2)CC3)C1=O [Example 61] | 4.71
61 | O=C1OCCN1c1ccc2c(c1)CN(c1ncc(Cc3ccc(C4CCOCC4)cc3)s1)CC2 [Example 62] | 0.362
62 | Cc1cn(-c2ccc3c(c2)CN(c2nc(Cc4cccc(-n5cccn5)c4)cs2)CC3)c(C)n1 [Example 66] | 4.48
63 | Cc1cn(-c2ccc3c(c2)CN(c2ncc(Cc4cncc(-n5cccn5)c4)s2)CC3)c(C)n1 [Example 67] | 1.19
64 | O=C1OCCCN1c1ccc2c(c1)CN(c1ncc(Cc3ccc(-n4cccn4)cc3)s1)CC2 [Example 69] | 4.9
65 | CN1CCN(c2ccc3c(c2)CN(c2ncc(Cc4ccc(-n5cccn5)cc4)s2)CC3)CC1=O [Example 70] | 2.14
66 | O=C1CN(c2ccc3c(c2)CN(c2ncc(Cc4ccc(-n5cccn5)cc4)s2)CC3)CCN1 [Example 71] | 10
67 | c1cnn(-c2ccc(Cc3cnc(N4CCc5ccc(N6CCOCC6)cc5C4)s3)cc2)c1 [Example 72] | 0.537
68 | O=C1CCCN1c1ccc2c(c1)CN(c1ncc(Cc3ccc(-n4cccn4)cc3)s1)CC2 [Example 73] | 0.423
